How the values were obtained:
Assay in all cases: Greenhouse postemergence herbicidal effect, visual injury after 20-22 d
Type in all cases: in vivo
[1] = system: Abutilon theophrasti (velvetleaf); conditions: ABUTH
Source text: (§1) Greenhouse Trial Methodology—Evaluation of Postemergence Herbicidal Effect
(§2) Seeds of the desired test plant species were planted in a 90:10% v/v (volume/volume) mixture of PRO-MIX® BX (Premier Tech Horticulture, Quakertown, Pa., USA) and PROFILE® GREENS GRADE™ (Profile Products LLC, Buffalo Grove, Ill., USA) planting mixture, which typically has a pH of 5.2 to 6.2 and an organic matter content of at least 50 percent, in plastic pots with a surface area of 103.2 square centimeters (cm^2). In some aspects, to help ensure good germination and healthy plants, a fungicide treatment and/or other chemical or physical treatment was applied. The plants were grown for 7-36 days (d) in a greenhouse with an approximate 14-hour (h) photoperiod which was maintained at about 23° C. during the day and 22° C. during the night. Nutrients and water were added on a regular basis and supplemental lighting was provided with overhead metal halide 1000-Watt lamps as necessary. The plants were employed for testing when they reached the second or third true leaf stage.
(§3) Emulsifiable concentrates of each of each pyridine carboxylate herbicide (Compound A or Compound B) were prepared at 100 grams acid equivalent per liter (g ae/L). The emulsifiable concentrates also included a safener, at 120 grams active ingredient per liter (g ai/L). An aliquot of each emulsifiable concentrate was placed in a 25 mL glass vial and diluted with an aqueous mixture of 1.25% (v/v) ACTIROB® B esterified rapeseed oil (Bayer Crop Science, Research Triangle Park, N.C., USA) or MSO® Concentrate with LECI-TECH® methylated soybean oil (Loveland Products, Loveland, Colo., USA) to obtain concentrated stock solutions at the highest application rate for each herbicide, based upon a 12 milliliter (mL) application volume at a rate of 187 liters per hectare (L/ha). The concentrated stock solutions were further diluted with an aqueous mixture of 1.25% v/v ACTIROB® B or MSO® Concentrate with LECI-TECH® to obtain stock solutions at reduced application rates for each herbicide. Spray solutions of the herbicide combinations (Compound A or Compound B plus the CBI herbicide) were prepared by adding weighed amounts or aliquots of the CBI herbicide to the stock solutions of Compound A or Compound B to form 12-mL spray solutions in two-way combinations.
(§4) The spray solutions were applied to the plant material with an overhead Mandel track sprayer equipped with 8002E nozzles calibrated to deliver 187 L/ha over an application area of 0.503 square meters (m^2) at a spray height of 18 inches (43 centimeters (cm)) above the average plant canopy. Control plants were sprayed in the same manner with the solvent blank. All pyridine carboxylate herbicide (component a) application rates are given as “g ae/ha” and all CBI herbicide (component b) application rates are given as “g ai/ha.”
(§5) The treated plants and control plants were placed in a greenhouse as described above and watered by sub-irrigation to prevent wash-off of the test compounds. After 20-22 d, the condition of the test plants as compared with that of the control plants was determined visually and scored on a scale of 0 to 100 percent where 0 corresponds to no injury and 100 corresponds to complete kill.

[2] = system: Amaranthus retroflexus (pigweed); conditions: AMARE
Source text: as §1, §2, §3, §4, §5

[3] = system: Brassica napus (spring rape); conditions: BRSNN
Source text: as §1, §2, §3, §4, §5

[4] = system: Brassica napus (winter rape); conditions: BRSNW
Source text: as §1, §2, §3, §4, §5

[5] = system: Chenopodium album L. (common lambsquarters); conditions: CHEAL
Source text: as §1, §2, §3, §4, §5

[6] = system: Cirsium arvense (Canadian thistle); conditions: CIRAR
Source text: as §1, §2, §3, §4, §5

[7] = system: Digitaria sanguinalis (large crabgrass); conditions: DIGSA
Source text: as §1, §2, §3, §4, §5

[8] = system: Echinochloa crus-galli (barnyard grass); conditions: ECHCG
Source text: as §1, §2, §3, §4, §5

[9] = system: Ipomoea hederacea (ivyleaf morningglory); conditions: IPOHE
Source text: as §1, §2, §3, §4, §5

Kochia scoparia (kochia) = conditions: KCHSC
Source text: as §1, §2, §3, §4, §5

[10] = system: Lolium multiflorum (Italian rye grass); conditions: Table 2; LOLMU; Indaziflam 35 g/ha
Source text: as §1, §2, §3, §4, §5

[11] = system: Matricaria chamomilla (wild chamomile); conditions: MATCH
Source text: as §1, §2, §3, §4, §5

[12] = system: Polygonum convolvulus (wild buckwheat); conditions: POLCO
Source text: as §1, §2, §3, §4, §5

[13] = system: Salsola kali (Russian thistle); conditions: SASKR
Source text: as §1, §2, §3, §4, §5

[14] = system: Setaria faberi (giant foxtail); conditions: SETFA
Source text: as §1, §2, §3, §4, §5

[15] = system: Viola tricolor (wild pansy); conditions: VIOTR
Source text: as §1, §2, §3, §4, §5

[16] = system: Cyperus esculentus (nutsedge); conditions: Table 1; CYPES; Isoxaben 50 g/ha
Source text: as §1, §2, §3, §4, §5

[17] = system: Euphorbia heterophylla (poinsettia); conditions: Table 1; EPHHL; Isoxaben 50 g/ha
Source text: as §1, §2, §3, §4, §5

Glycine max (soybean) = conditions: Table 1; GLXMA; Isoxaben 50 g/ha
Source text: as §1, §2, §3, §4, §5

[18] = system: Helianthus annuus (common sunflower); conditions: Table 1; HELAN; Isoxaben 50 g/ha
Source text: as §1, §2, §3, §4, §5

[19] = system: Oryza sativa (common rice); conditions: Table 1; ORYSA; Isoxaben 50 g/ha
Source text: as §1, §2, §3, §4, §5

[20] = system: Rumex obtusifolius (broad-leaf dock); conditions: Table 1; RUMOB; Isoxaben 50 g/ha
Source text: as §1, §2, §3, §4, §5

[21] = system: Sorghum vulgare (grain sorghum); conditions: Table 1; SORVU; Isoxaben 50 g/ha
Source text: as §1, §2, §3, §4, §5

[22] = system: Stellaria media (chickweed); conditions: Table 1; STEME; Isoxaben 50 g/ha
Source text: as §1, §2, §3, §4, §5

## Cc1ccc2c(c1)[C@H](Nc1nc(N)nc(C(C)F)n1)[C@@H](C)C2 (some centres unmarked) [Indaziflam, indaziflam, reference compound]
[1]; Table 2, Indaziflam 35 g/ha
  Obs % visual injury: 60%
[2]; Table 3, Indaziflam 35 g/ha
  Obs % visual injury: 23%
[2]; Table 3, Indaziflam 70 g/ha
  Obs % visual injury: 33%
[3]; Table 2, Indaziflam 35 g/ha
  Obs % visual injury: 30%
[4]; Table 3, Indaziflam 35 g/ha
  Obs % visual injury: 45%
[4]; Table 3, Indaziflam 70 g/ha
  Obs % visual injury: 45%
[5]; Table 3, Indaziflam 35 g/ha
  Obs % visual injury: 10%
[5]; Table 3, Indaziflam 70 g/ha
  Obs % visual injury: 10%
[6]; Table 2, Indaziflam 35 g/ha
  Obs % visual injury: 5%
[7]; Table 2, Indaziflam 35 g/ha
  Obs % visual injury: 0%
[8]; Table 2, Indaziflam 35 g/ha
  Obs % visual injury: 0%
[9]; Table 2, Indaziflam 35 g/ha
  Obs % visual injury: 10%
Kochia scoparia (kochia); Table 2, Indaziflam 35 g/ha
  Obs % visual injury: 40%
Kochia scoparia (kochia); Table 3, Indaziflam 35 g/ha
  Obs % visual injury: 28%
Kochia scoparia (kochia); Table 3, Indaziflam 70 g/ha
  Obs % visual injury: 30%
[10]
  Obs % visual injury: 0%
[11]; Table 3, Indaziflam 35 g/ha
  Obs % visual injury: 13%
[11]; Table 3, Indaziflam 70 g/ha
  Obs % visual injury: 38%
[12]; Table 2, Indaziflam 35 g/ha
  Obs % visual injury: 10%
[12]; Table 3, Indaziflam 35 g/ha
  Obs % visual injury: 10%
[12]; Table 3, Indaziflam 70 g/ha
  Obs % visual injury: 13%
[13]; Table 3, Indaziflam 35 g/ha
  Obs % visual injury: 55%
[13]; Table 3, Indaziflam 70 g/ha
  Obs % visual injury: 60%
[14]; Table 2, Indaziflam 35 g/ha
  Obs % visual injury: 0%
[15]; Table 2, Indaziflam 35 g/ha
  Obs % visual injury: 5%

## CCC(C)(CC)c1cc(NC(=O)c2c(OC)cccc2OC)on1 [Isoxaben, isoxaben, reference compound]
[1]; Table 1, Isoxaben 50 g/ha
  Obs % visual injury: 5%
[2]; Table 1, Isoxaben 50 g/ha
  Obs % visual injury: 10%
[2]; Table 4, Isoxaben 50 g/ha
  Obs % visual injury: 20%
[2]; Table 4, Isoxaben 100 g/ha
  Obs % visual injury: 10%
[3]; Table 1, Isoxaben 50 g/ha
  Obs % visual injury: 55%
[4]; Table 4, Isoxaben 50 g/ha
  Obs % visual injury: 53%
[4]; Table 4, Isoxaben 100 g/ha
  Obs % visual injury: 60%
[5]; Table 1, Isoxaben 50 g/ha
  Obs % visual injury: 0%
[5]; Table 4, Isoxaben 50 g/ha
  Obs % visual injury: 0%
[5]; Table 4, Isoxaben 100 g/ha
  Obs % visual injury: 0%
[6]; Table 1, Isoxaben 50 g/ha
  Obs % visual injury: 8%
[16]
  Obs % visual injury: 0%
[7]; Table 1, Isoxaben 50 g/ha
  Obs % visual injury: 0%
[8]; Table 1, Isoxaben 50 g/ha
  Obs % visual injury: 5%
[17]
  Obs % visual injury: 15%
Glycine max (soybean)
  Obs % visual injury: 0%
[18]
  Obs % visual injury: 18%
[9]; Table 1, Isoxaben 50 g/ha
  Obs % visual injury: 3%
Kochia scoparia (kochia); Table 1, Isoxaben 50 g/ha
  Obs % visual injury: 13%
Kochia scoparia (kochia); Table 4, Isoxaben 50 g/ha
  Obs % visual injury: 5%
Kochia scoparia (kochia); Table 4, Isoxaben 100 g/ha
  Obs % visual injury: 5%
[11]; Table 4, Isoxaben 50 g/ha
  Obs % visual injury: 15%
[11]; Table 4, Isoxaben 100 g/ha
  Obs % visual injury: 15%
[19]
  Obs % visual injury: 0%
[12]; Table 1, Isoxaben 50 g/ha
  Obs % visual injury: 0%
[12]; Table 4, Isoxaben 50 g/ha
  Obs % visual injury: 0%
[12]; Table 4, Isoxaben 100 g/ha
  Obs % visual injury: 0%
[20]
  Obs % visual injury: 0%
[13]; Table 4, Isoxaben 50 g/ha
  Obs % visual injury: 0%
[13]; Table 4, Isoxaben 100 g/ha
  Obs % visual injury: 5%
[14]; Table 1, Isoxaben 50 g/ha
  Obs % visual injury: 5%
[21]
  Obs % visual injury: 8%
[22]
  Obs % visual injury: 0%
[15]; Table 1, Isoxaben 50 g/ha
  Obs % visual injury: 0%

From patent publication US20220000110A1, “COMPOSITIONS COMPRISING PYRIDINE CARBOXYLATE HERBICIDES AND CELLULOSE BIOSYNTHESIS INHIBITOR HERBICIDES” (priority 2018, published 2022)
